From US9056876B2, “Substituted 1H-pyrazolo[3′,4′,4,5]thieno[2,3-b]pyridin-3-amine analogs as positive allosteric modulators of the muscarinic acetylcholine receptor M4” (VANDERBILT UNIVERSITY, priority 2011, dated 2015)

Experiments:
[1] = target: T1, mAChR M4 (UniProt P08173); experiment: mAChR M4 cell-based functional assay (calcium mobilization, Fluo-4, FDSS); settings: CHO-K1 cells; for pEC50: positive allosteric modulator activity, EC20 acetylcholine response; for EC50: positive allosteric modulator activity: concentration-dependent increase in the EC20 acetylcholine response, >10 μM estimated for low potency (no plateau)
T1 construct: hM1 and hM4 cDNAs were purchased from Missouri S&T cDNA Resource
T1 sequence (P08173 1-479): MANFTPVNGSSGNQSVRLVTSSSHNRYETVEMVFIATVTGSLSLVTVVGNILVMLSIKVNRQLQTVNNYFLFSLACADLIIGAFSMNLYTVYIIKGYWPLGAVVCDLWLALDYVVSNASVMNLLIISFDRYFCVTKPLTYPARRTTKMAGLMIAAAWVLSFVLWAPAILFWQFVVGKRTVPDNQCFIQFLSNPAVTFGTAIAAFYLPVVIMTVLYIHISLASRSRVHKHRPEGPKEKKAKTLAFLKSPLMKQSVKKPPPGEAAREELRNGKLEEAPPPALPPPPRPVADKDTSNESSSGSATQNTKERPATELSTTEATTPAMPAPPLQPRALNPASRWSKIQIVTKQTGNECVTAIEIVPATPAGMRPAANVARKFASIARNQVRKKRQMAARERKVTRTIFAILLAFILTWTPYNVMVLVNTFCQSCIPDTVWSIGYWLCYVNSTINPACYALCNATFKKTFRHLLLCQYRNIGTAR
Method in brief: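 Compound responses (11-point, 1:3 series) were followed as calcium fluorescence ratio on FDSS in Gqi5-coupled M4 CHO-K1 cells (human or rat) loaded with Fluo-4. Acetylcholine followed at EC20 (144 s) then EC80 (230 s). EC50/Emax from four-parameter logistic fits of direct, EC20-potentiating or EC80-inhibiting effects.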

[2] = in vivo; cited from earlier work
[3] = test system: Alzheimer's disease patients; settings: cited from earlier work
[4] = test system: animal models; settings: cited from earlier work

pEC50 [1]	EC50 [1]	SMILES	also measured
<5.00	> 10 µM	COc1ccc(Cn2nc(N)c3sc4nc(C)c(Cl)c(C)c4c32)cc1 [Compound 161, 7-chloro-1-(4-methoxybenzyl)-6,8-dimethyl-1H-pyrazolo[3′,4′:4,5]thieno[2,3-b]pyridin-3-amine]	
<5.00	> 10 µM	Cc1cc(C)c2c(n1)sc1c(NC3CCN(C(C)C)CC3)nn(C)c12 [Compound 162, N-(1-isopropylpiperidin-4-yl)-1,6,8-trimethyl-1H-pyrazolo[3′,4′:4,5]thieno[2,3-b]pyridin-3-amine]	
<5.00	> 10 µM	Cc1cc(C)c2c(n1)sc1c(NCc3nccn3C)nn(C)c12 [Compound 163, 1,6,8-trimethyl-N-((1-methyl-1H-imidazol-2-yl)methyl)-1H-pyrazolo[3′,4′:4,5]thieno[2,3-b]pyridin-3-amine]	
<5.00	> 10 µM	Cc1cc(C)c2c(n1)sc1c(NC(C)CS(C)(=O)=O)nn(C)c12 (stereo not drawn) [Compound 164, 1,6,8-trimethyl-N-(1-(methylsulfonyl)propan-2-yl)-1H-pyrazolo[3′,4′:4,5]thieno[2,3-b]pyridin-3-amine]	
<5.00	> 10 µM	COCCn1nc(N)c2sc3nc(C)cc(C)c3c21 [Compound 165, 1-(2-methoxyethyl)-6,8-dimethyl-1H-pyrazolo[3′,4′:4,5]thieno[2,3-b]pyridin-3-amine]	
<5.00	> 10 µM	CCCn1nc(N)c2sc3nc(C)cc(C)c3c21 [Compound 166, 6,8-dimethyl-1-propyl-1H-pyrazolo[3′,4′:4,5]thieno[2,3-b]pyridin-3-amine]	
<5.00	> 10 µM	COCCn1nc(NCc2ccco2)c2sc3nc(C)cc(C)c3c21 [Compound 167, N-(furan-2-ylmethyl)-1-(2-methoxyethyl)-6,8-dimethyl-1H-pyrazolo[3′,4′:4,5]thieno[2,3-b]pyridin-3-amine]	
		Nc1c2c(nc3ccccc13)CCCC2 [tacrine]	elevated liver transaminases, share of patients [2]: about 30%
		CCCCCCOc1nsnc1C1=CCCN(C)C1 [xanomeline]	psychotic behavioral symptoms (delusions, suspiciousness, vocal outbursts, hallucinations) [3]: reduce psychotic behavioral symptoms; catalepsy ([4]; in vivo): without causing catalepsy; activity in animal models ([4]; profiles similar to known antipsychotic drugs): active in animal models
